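How tested: cells in 96-well plates exposed to compound for 48 hours at five concentrations. GI50: concentration for 50% inhibition of growth. TGI marks complete inhibition of growth.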
Assays:
Test in all cases: DTP human tumour cell line panel, 48 h
NCI-H522 lung = tested on: NCI-H522 lung
SNB-19 CNS = tested on: SNB-19 CNS
K-562 leukemia = tested on: K-562 leukemia
SN12C renal = tested on: SN12C renal
OVCAR-4 ovarian = tested on: OVCAR-4 ovarian
SK-MEL-5 melanoma = tested on: SK-MEL-5 melanoma
PC-3 prostate = tested on: PC-3 prostate
SW-620 colon = tested on: SW-620 colon
RXF 393 renal = tested on: RXF 393 renal
BT-549 breast = tested on: BT-549 breast
CCRF-CEM leukemia = tested on: CCRF-CEM leukemia
SR leukemia = tested on: SR leukemia
MDA-MB-435 = tested on: MDA-MB-435
HL-60(TB) leukemia = tested on: HL-60(TB) leukemia
NCI-H460 lung = tested on: NCI-H460 lung
TK-10 renal = tested on: TK-10 renal
U251 CNS = tested on: U251 CNS
ACHN renal = tested on: ACHN renal
UO-31 renal = tested on: UO-31 renal
HT29 colon = tested on: HT29 colon
SK-OV-3 ovarian = tested on: SK-OV-3 ovarian
M14 melanoma = tested on: M14 melanoma
SK-MEL-2 melanoma = tested on: SK-MEL-2 melanoma
HCC-2998 colon = tested on: HCC-2998 colon
OVCAR-3 ovarian = tested on: OVCAR-3 ovarian
SF-268 CNS = tested on: SF-268 CNS
HCT-116 colon = tested on: HCT-116 colon
NCI-H23 lung = tested on: NCI-H23 lung
KM12 colon = tested on: KM12 colon
IGROV1 ovarian = tested on: IGROV1 ovarian
SK-MEL-28 melanoma = tested on: SK-MEL-28 melanoma
COLO 205 colon = tested on: COLO 205 colon
MALME-3M melanoma = tested on: MALME-3M melanoma
MCF7 breast = tested on: MCF7 breast
EKVX NSCLC = tested on: EKVX NSCLC
CAKI-1 renal = tested on: CAKI-1 renal
HCT-15 colon = tested on: HCT-15 colon
T-47D breast = tested on: T-47D breast
LOX IMVI melanoma = tested on: LOX IMVI melanoma
SF-539 CNS = tested on: SF-539 CNS
A498 renal = tested on: A498 renal
NCI-H226 lung = tested on: NCI-H226 lung
OVCAR-8 ovarian = tested on: OVCAR-8 ovarian
MDA-MB-231 breast = tested on: MDA-MB-231 breast
DU-145 prostate = tested on: DU-145 prostate
RPMI-8226 leukemia = tested on: RPMI-8226 leukemia
UACC-257 melanoma = tested on: UACC-257 melanoma
HOP-92 NSCLC = tested on: HOP-92 NSCLC
HOP-62 NSCLC = tested on: HOP-62 NSCLC
MOLT-4 leukemia = tested on: MOLT-4 leukemia
A549 NSCLC = tested on: A549 NSCLC
UACC-62 melanoma = tested on: UACC-62 melanoma
786-0 renal = tested on: 786-0 renal
SF-295 CNS = tested on: SF-295 CNS
MDA-MB-468 breast = tested on: MDA-MB-468 breast
OVCAR-5 ovarian = tested on: OVCAR-5 ovarian
SNB-75 CNS = tested on: SNB-75 CNS
HS 578T breast = tested on: HS 578T breast

O=C(Nc1ccc(F)c(Cl)c1)c1cc(-c2ccc(F)cc2F)ccc1O
GI50 (NCI-H522 lung): 1.74 µM | TGI (NCI-H522 lung): 7.65 µM | GI50 (SNB-19 CNS): 2.95 µM | TGI (SNB-19 CNS): 19.1 µM | GI50 (K-562 leukemia): 2.01 µM | TGI (K-562 leukemia): 11.9 µM | GI50 (SN12C renal): 2.18 µM | TGI (SN12C renal): 8.26 µM | GI50 (OVCAR-4 ovarian): 2.49 µM | TGI (OVCAR-4 ovarian): 15.2 µM | GI50 (SK-MEL-5 melanoma): 0.832 µM | TGI (SK-MEL-5 melanoma): 2.21 µM | GI50 (PC-3 prostate): 3.08 µM | TGI (PC-3 prostate): 13.4 µM | GI50 (SW-620 colon): 3.05 µM | TGI (SW-620 colon): 11.9 µM | GI50 (RXF 393 renal): 1.65 µM | TGI (RXF 393 renal): 5.45 µM | GI50 (BT-549 breast): 1.59 µM | TGI (BT-549 breast): 4.05 µM | GI50 (CCRF-CEM leukemia): 3.34 µM | TGI (CCRF-CEM leukemia): > 100 µM | GI50 (SR leukemia): 2.39 µM | TGI (SR leukemia): 9.53 µM | GI50 (MDA-MB-435): 2.17 µM | TGI (MDA-MB-435): 7.05 µM | GI50 (HL-60(TB) leukemia): 1.78 µM | TGI (HL-60(TB) leukemia): 4.44 µM | GI50 (NCI-H460 lung): 2.19 µM | TGI (NCI-H460 lung): 8.82 µM | GI50 (TK-10 renal): 3.57 µM | TGI (TK-10 renal): 13.5 µM | GI50 (U251 CNS): 3.01 µM | TGI (U251 CNS): 12.5 µM | GI50 (ACHN renal): 2.42 µM | TGI (ACHN renal): 10.3 µM | GI50 (UO-31 renal): 2.49 µM | TGI (UO-31 renal): 12.3 µM | GI50 (HT29 colon): 4.79 µM | TGI (HT29 colon): 26.8 µM | GI50 (SK-OV-3 ovarian): 2.06 µM | TGI (SK-OV-3 ovarian): 6.07 µM | GI50 (M14 melanoma): 2.3 µM | TGI (M14 melanoma): 6.88 µM | GI50 (SK-MEL-2 melanoma): 1.4 µM | TGI (SK-MEL-2 melanoma): 3.71 µM | GI50 (HCC-2998 colon): 3.28 µM | TGI (HCC-2998 colon): 11.6 µM | GI50 (OVCAR-3 ovarian): 2.98 µM | TGI (OVCAR-3 ovarian): 12.9 µM | GI50 (SF-268 CNS): 2.23 µM | TGI (SF-268 CNS): 9.68 µM | GI50 (HCT-116 colon): 2.04 µM | TGI (HCT-116 colon): 5.62 µM | GI50 (NCI-H23 lung): 1.69 µM | TGI (NCI-H23 lung): 4.8 µM | GI50 (KM12 colon): 2.57 µM | TGI (KM12 colon): 6.83 µM | GI50 (IGROV1 ovarian): 3.25 µM | TGI (IGROV1 ovarian): 27 µM | GI50 (SK-MEL-28 melanoma): 2.2 µM | TGI (SK-MEL-28 melanoma): 9.94 µM | GI50 (COLO 205 colon): 5.11 µM | TGI (COLO 205 colon): 17.6 µM | GI50 (MALME-3M melanoma): 1.91 µM | TGI (MALME-3M melanoma): 5.3 µM | GI50 (MCF7 breast): 2.48 µM | TGI (MCF7 breast): 13.9 µM | GI50 (EKVX NSCLC): 2.71 µM | TGI (EKVX NSCLC): 12.7 µM | GI50 (CAKI-1 renal): 1.5 µM | TGI (CAKI-1 renal): 4.97 µM | GI50 (HCT-15 colon): 2.31 µM | TGI (HCT-15 colon): 10.2 µM | GI50 (T-47D breast): 1.86 µM | TGI (T-47D breast): 6.61 µM | GI50 (LOX IMVI melanoma): 2.89 µM | TGI (LOX IMVI melanoma): 8.25 µM | GI50 (SF-539 CNS): 2.58 µM | TGI (SF-539 CNS): 10.6 µM | GI50 (A498 renal): 2.27 µM | TGI (A498 renal): 6.31 µM | GI50 (NCI-H226 lung): 2.1 µM | TGI (NCI-H226 lung): 7 µM | GI50 (OVCAR-8 ovarian): 3.1 µM | TGI (OVCAR-8 ovarian): 13.3 µM | GI50 (MDA-MB-231 breast): 1.96 µM | TGI (MDA-MB-231 breast): 4.62 µM | GI50 (DU-145 prostate): 3.01 µM | TGI (DU-145 prostate): > 100 µM | GI50 (RPMI-8226 leukemia): 1.67 µM | TGI (RPMI-8226 leukemia): 9.57 µM | GI50 (UACC-257 melanoma): 1.67 µM | TGI (UACC-257 melanoma): 6.15 µM | GI50 (HOP-92 NSCLC): 1.56 µM | TGI (HOP-92 NSCLC): 5.45 µM | GI50 (HOP-62 NSCLC): 2.24 µM | TGI (HOP-62 NSCLC): 5.38 µM | GI50 (MOLT-4 leukemia): 1.77 µM | TGI (MOLT-4 leukemia): 5.47 µM | GI50 (A549 NSCLC): 2.95 µM | TGI (A549 NSCLC): 15.1 µM | GI50 (UACC-62 melanoma): 1.29 µM | TGI (UACC-62 melanoma): 3.72 µM | GI50 (786-0 renal): 2.75 µM | TGI (786-0 renal): 9.2 µM | GI50 (SF-295 CNS): 2.42 µM | TGI (SF-295 CNS): 6.2 µM | GI50 (MDA-MB-468 breast): 2.1 µM | TGI (MDA-MB-468 breast): 5.51 µM | GI50 (OVCAR-5 ovarian): 3.39 µM | TGI (OVCAR-5 ovarian): 38.9 µM | GI50 (SNB-75 CNS): 1.05 µM | TGI (SNB-75 CNS): 4.68 µM | GI50 (HS 578T breast): 1.93 µM | TGI (HS 578T breast): 6.55 µM

Source: PubChem BioAssay (NCI)
